Reference: US12583855B2, “RET selective inhibitor, preparation method therefor and use thereof” (SHOUYAO HOLDINGS (BEIJING) CO., LTD., priority 2019, dated 2026)
Residue numbers refer to the chain shown, from its start. pIC50: −log10 of the molar value.

Tests used:
[1] = tested on: TT cells; experiment: TT cell proliferation activity (Cell-Titer Glo); type: cell-based; details: TT human thyroid carcinoma cells, 120 h
Procedure: 4. Determination of TT Cell Proliferation Activity of Compounds
TT cells, a human thyroid carcinoma cell line, were cultured in Ham's F-12K medium supplemented with 15% fetal bovine serum (FBS, purchased from Biological Industries, BI) and 1% penicillin/streptomycin double antibody (P/S, purchased from Life Technology) under conditions of 37° C. and 5% CO2. TT cells were plated in a 96-well plate (#3917 purchased from Corning) at a concentration of 5000 cells/195 μL/well the day before compound was detected. The compounds were diluted 3-fold with 100% DMSO starting from 10 mM (10 concentrations in total) after 24 h, and 2 μL of each concentration was diluted in 48 μL of Ham's F-12K medium. 5 μL of each diluted compound was added to the plated Cell suspension, the compound and cells were co-incubated in a cell incubator for 120 h (5 days), after the medium was aspirated. 25 μL of Cell-Titer Glo (G7570, purchased from Promega) reagent was added and re-incubated for 5-10 min. Fluorescence value was then read on Envision and the data were calculated using GraphPad Prism software to obtain IC50 values for inhibition of cell proliferation by the compounds.

[2] = target: T1, RET^WT (Homo sapiens, UniProt P07949); experiment: In vitro enzymatic activity assay on RET^WT (HTRF); type: biochemical; details: GST-RET^WT (658-1114 aa) 0.5 nM, ATP 25 μM
T1 construct: GST-RET^WT (658-1114 aa, final concentration of 0.5 nM)
T1 sequence (P07949 658-1114): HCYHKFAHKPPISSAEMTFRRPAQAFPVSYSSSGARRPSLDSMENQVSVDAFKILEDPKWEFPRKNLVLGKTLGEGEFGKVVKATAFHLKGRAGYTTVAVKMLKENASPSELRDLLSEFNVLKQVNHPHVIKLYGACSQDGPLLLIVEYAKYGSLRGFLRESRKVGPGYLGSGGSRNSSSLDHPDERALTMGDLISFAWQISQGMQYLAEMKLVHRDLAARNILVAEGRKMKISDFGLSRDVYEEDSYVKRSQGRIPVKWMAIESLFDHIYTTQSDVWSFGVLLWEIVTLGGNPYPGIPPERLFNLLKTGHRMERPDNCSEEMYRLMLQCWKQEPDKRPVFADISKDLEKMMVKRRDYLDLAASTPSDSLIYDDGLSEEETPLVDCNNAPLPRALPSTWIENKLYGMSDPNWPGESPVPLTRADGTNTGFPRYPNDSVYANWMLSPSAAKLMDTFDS
In short: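 Reaction run 2 h at 23 °C in HEPES pH 7.5 buffer with Na3VO4, MgCl2, DTT, Tween 20 and BSA; compounds tested at 7 concentrations (5-fold serial dilution in DMSO from 0.2 mM stock). HTRF detection with TK antibody and streptavidin-XL665; IC50 from curve fitting.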

[3] = target: VEGFR2 (Homo sapiens, UniProt P35968); experiment: In vitro enzymatic activity assay on VEGFR2 (HTRF); type: biochemical; details: GST-VEGFR2 0.1 nM, ATP 2.5 μM
VEGFR2, sequence (P35968 20-1356): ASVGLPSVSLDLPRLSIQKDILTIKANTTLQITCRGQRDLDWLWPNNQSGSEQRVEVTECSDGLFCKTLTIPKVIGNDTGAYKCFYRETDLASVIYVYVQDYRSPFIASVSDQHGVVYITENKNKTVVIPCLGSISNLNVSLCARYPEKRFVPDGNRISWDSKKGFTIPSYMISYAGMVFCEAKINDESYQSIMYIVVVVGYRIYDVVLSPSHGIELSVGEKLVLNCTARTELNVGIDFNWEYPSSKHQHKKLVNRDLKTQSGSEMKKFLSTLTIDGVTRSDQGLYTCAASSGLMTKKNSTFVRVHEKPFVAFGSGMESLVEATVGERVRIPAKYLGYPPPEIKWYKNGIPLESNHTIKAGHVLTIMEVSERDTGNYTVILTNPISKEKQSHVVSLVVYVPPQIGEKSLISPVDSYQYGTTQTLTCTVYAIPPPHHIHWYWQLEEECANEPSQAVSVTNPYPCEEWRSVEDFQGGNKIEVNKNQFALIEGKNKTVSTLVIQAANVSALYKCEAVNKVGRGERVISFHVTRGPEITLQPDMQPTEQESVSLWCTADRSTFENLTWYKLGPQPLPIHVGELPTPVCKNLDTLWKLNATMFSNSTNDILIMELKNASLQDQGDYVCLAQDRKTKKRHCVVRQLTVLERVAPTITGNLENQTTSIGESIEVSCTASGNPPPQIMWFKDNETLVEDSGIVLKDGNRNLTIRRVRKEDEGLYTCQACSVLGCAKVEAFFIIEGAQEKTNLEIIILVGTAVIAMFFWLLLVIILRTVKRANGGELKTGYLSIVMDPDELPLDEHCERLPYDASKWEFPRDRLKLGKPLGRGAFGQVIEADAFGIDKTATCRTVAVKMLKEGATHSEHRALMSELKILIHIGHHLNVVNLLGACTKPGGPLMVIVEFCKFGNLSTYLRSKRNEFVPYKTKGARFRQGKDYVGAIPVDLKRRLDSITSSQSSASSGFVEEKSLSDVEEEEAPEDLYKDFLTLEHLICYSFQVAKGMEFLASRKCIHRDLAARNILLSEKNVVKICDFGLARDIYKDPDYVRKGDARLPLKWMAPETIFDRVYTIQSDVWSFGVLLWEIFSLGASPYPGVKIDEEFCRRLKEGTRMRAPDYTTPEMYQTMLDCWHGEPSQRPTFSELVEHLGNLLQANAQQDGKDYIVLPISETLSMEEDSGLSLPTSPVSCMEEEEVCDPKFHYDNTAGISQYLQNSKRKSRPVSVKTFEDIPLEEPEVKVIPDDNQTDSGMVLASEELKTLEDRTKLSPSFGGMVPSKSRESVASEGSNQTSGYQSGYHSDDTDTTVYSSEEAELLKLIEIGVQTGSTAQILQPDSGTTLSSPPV
In short: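 GST-VEGFR2 (0.1 nM final) with 2.5 μM ATP and 1 μM TK peptide substrate in HEPES pH 7.5 buffer with Mg²⁺/Mn²⁺, 1.5 h at 23 °C. HTRF read-out (665/620 nm ratio) after adding TK antibody and streptavidin-XL665. IC50 from 7-point, 5-fold dilution series.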

[4] = Pharmacokinetic data of compounds in male SD rats; type: in vivo; details: rat, po, intragastric, 5 mg/kg, suspension MC 0.5%, plasma
Procedure: 6. Pharmacokinetic Data of Compounds
Male SD rats (Beijing Vital River Laboratory Animal Technology Co., Ltd) were divided into groups. 3 in each group, received intragastric administration with the suspension of the test sample (5 mg/kg, suspensions MC 0.5%), respectively. Animals were fasted overnight prior to the experiment from 10 h before dosing to 4 h after dosing. Blood was collected 0.25, 0.5, 1, 2, 4, 6, 8, and 24 h after administration, respectively. After isoflurane anesthesia using a small animal anesthesia machine, 0.3 mL of whole blood samples was taken through the fundus venous plexus, placed in a heparin anticoagulant tube, and were centrifuged at 4° C. 4000 rpm for 5 min plasma was transferred to the centrifuge tube, and stored at −80° C. until analysis. Samples in the plasma were extracted using protein precipitation and the extracts were analyzed by LC/MS.

[5] = target: T2, RET^V804M (Homo sapiens, UniProt P07949, V804M); experiment: In vitro enzymatic activity assay on RET^V804M (HTRF); type: biochemical; details: GST-RET^V804M (658-1114 aa) 0.02 nM, ATP 1.5 μM
T2 construct: GST-RET^V804M (658-1114 aa, final concentration of 0.02 nM)
T2 sequence (P07949 658-1114 V804M): T1 sequence (P07949 658-1114) with V147M

[6] = tested on: KIF5B-RET/HEK293T cells; experiment: Cell proliferation activity in KIF5B-RET/HEK293T cells (Cell-Titer Glo); type: cell-based; details: Homo sapiens, HEK-293T, 72 h, read-out: KIFSB-RETV^804M/293T (Cell)IC50

| Compound | pIC50 [2] | pIC50 [3] | AUC(0-inf) [4] | Cmax [4] | Tmax [4] | half-life [4] | pIC50 [5] | pIC50 [1] | pIC50 [6] |
| --- | --- | --- | --- | --- | --- | --- | --- | --- | --- |
| CSc1ccc(CN2C3CC2CN(c2ccc(-c4cc(-c5cnn(C(F)F)c5)cn5ncc(C#N)c45)cn2)C3)cn1 [Example 60, 6-(1-(difluoromethyl)-1Hpyrazol-4-yl)-4-(6-(6-((6-(methylthio)pyridin-3-yl)methyl)-3,6-diazabicyclo[3.1.1]heptan-3-yl)pyridin-3-yl)pyrazolo[1,5-a]pyridine-3-carbonitrile] | 9.99 | 8.51 | 14700 ng·h/mL | 1140 ng/mL | 1.5 h | 7.45 h | 9.23 | 7.73 | 6.55 |
| COCC1=C(C(=O)N2CCN(c3ccc(-c4cc(-c5cnn(C)c5)cn5ncc(C#N)c45)cn3)CC2)CCC1 [Example 12, 4-(6-(4-(2-(methoxymethyl)cyclopent-1-ene-1-carbonyl)piperazin-1-yl)pyridin-3-yl)-6-(1-methyl-1Hpyrazol-4-yl)pyrazolo[1,5-a]pyridine-3-carbonitrile] | 9.19 | 7.84 | – | – | – | – | 8.83 | 8.20 | 6.85 |
| CSc1cc(CN2C3CC2CN(c2ccc(-c4cc(-c5cnn(C(F)F)c5)cn5ncc(C#N)c45)cn2)C3)ccn1 [Example 72, 6-(1-(difluoromethyl)-1Hpyrazol-4-yl)-4-(6(6-((2-(methylthio)pyridin-4-yl)methyl)-3,6-diazabicyclo[3.1.1]heptan-3-yl)pyridin-3-yl)pyrazolo[1,5-a]pyridine-3-carbonitrile] | 9.83 | 8.11 | – | – | – | – | 9.13 | 7.60 | 6.41 |

The next lines start with results.

| pIC50 [2] | pIC50 [3] | AUC(0-inf) [4] | Cmax [4] | Tmax [4] | half-life [4] | pIC50 [5] | Compound | pIC50 [1] | pIC50 [6] |
| --- | --- | --- | --- | --- | --- | --- | --- | --- | --- |
| 9.25 | 8.00 | 8290 ng·h/mL | 1660 ng/mL | 2.17 h | 2.02 h | 8.91 | CSc1ccc(CN2CCN(c3ccc(-c4cc(-c5cnn(C)c5)cn5ncc(C#N)c45)cn3)CC2)nc1 [Example 9, 6-(1-methyl-1Hpyrazol-4-yl)-4(6-(4-((5-(methylthio)pyridin-2-yl)methyl)piperazin-1-yl)pyridin-3-yl)pyrazolo[1,5-a]pyridine-3-carbonitrile] | 7.43 | 6.43 |
| 9.22 | 8.01 | 12600 ng·h/mL | 1460 ng/mL | 2 h | 3.53 h | – | COc1ccc(CN2C3CC2CN(c2ccc(-c4cc(N5CC(C)(O)C5)cn5ncc(C#N)c45)cn2)C3)cn1 [Example 7, 6-(3-hydroxy-3-methylazetidin-1-yl)-4-(6-(6-((6-methoxypyridin-3-yl)methyl)-3,6-diazabicyclo[3.1.1]heptan-3-yl)pyridin-3-yl)pyrazolo[1,5-a]pyridine-3-carbonitrile] | 8.13 | 7.00 |
| 9.06 | 8.04 | – | – | – | – | 9.04 | CN(C)C(=S)N1CCN(c2ccc(-c3cc(-c4cnn(C)c4)cn4ncc(C#N)c34)cn2)CC1 [Example 8, 4-(5-(3-cyano-6-(1-methyl-1Hpyrazol-4-yl)pyrazolo[1,5-a]pyridine-4-yl)pyridin-2-yl)-N,N-dimethylpiperazin-1-carbothioamide] | 7.85 | 6.79 |
